Laboratory results as given in US20240409585A1, “MACROCYCLIC IMMUNOMODULATORS” (priority 2021, published 2024).
Bridge positions count the residues as written; N and C are the ends. Square brackets hold non-standard residues; d marks the D form. Peptide text beside a SMILES is read from it. * marks the point of attachment. ξ: configuration not given here. Bip(4'-COOH) = N[C@@H](Cc1ccc(-c2ccc(C(=O)O)cc2)cc1)C(=O)O; Phe(4-COOH) = N[C@@H](Cc1ccc(C(=O)O)cc1)C(=O)O; Bip = N[C@@H](Cc1ccc(-c2ccccc2)cc1)C(=O)O; Gly(cPent) = N[C@H](C(=O)O)C1CCCC1; h4Pal = N[C@@H](CCc1ccncc1)C(=O)O; aIle = CC[C@@H](C)[C@H](N)C(=O)O; Cha = N[C@@H](CC1CCCCC1)C(=O)O; Thr(3ξ) = CC(O)[C@H](N)C(=O)O; Ala(CN) = N#CC[C@H](N)C(=O)O; Carboxymethyl = O=C(O)C*; NMeA = CN[C@@H](C)C(=O)O; Dab = NCC[C@H](N)C(=O)O; ξV = CC(C)C(N)C(=O)O

Each compound was assayed against T1, PE-labeled human PD-L1-Ig binding to Jurkat cell line over-expressing human PD-1 (Jurkat-PD-1) (Homo sapiens, UniProt Q15116) (assay: Jurkat-PD-1 Cell Binding High-Content Screening Assay (CBA): Method 1). Conditions: Jurkat-hPD-1 cells, PE-labeled PD-L1-Ig 20 nM final; read-out: Jurkat HPDL1 PD1 IC50 (uM) (Method 1).
T1 construct: expressed in transfected cells; host or cells: Jurkat
T1 sequence (Q15116 25-288): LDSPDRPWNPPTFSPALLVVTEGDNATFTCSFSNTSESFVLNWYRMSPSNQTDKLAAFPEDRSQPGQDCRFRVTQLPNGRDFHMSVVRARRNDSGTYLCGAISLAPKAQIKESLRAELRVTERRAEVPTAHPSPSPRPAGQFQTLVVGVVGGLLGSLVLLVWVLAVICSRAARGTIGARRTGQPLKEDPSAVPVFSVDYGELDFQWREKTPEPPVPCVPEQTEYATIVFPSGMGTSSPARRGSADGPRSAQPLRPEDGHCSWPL

| SMILES | IC50 |
| --- | --- |
| CC(C)C[C@@H]1NC(=O)[C@H](Cc2c[nH]c3ccccc23)NC(=O)[C@H](CC(=O)O)NC(=O)[C@H](Cc2ccc(OCC(=O)O)cc2)NC(=O)[C@H](Cc2ccccc2)NC(=O)CSC[C@@H](C(=O)N[C@@H](CC(N)=O)C(N)=O)NC(=O)[C@H](Cc2cnc[nH]2)NC(=O)[C@H](C(C)C)NC(=O)[C@H](CC(C)C)NC(=O)[C@H](CCN)NC(=O)[C@@H](CC(C)C)NC(=O)[C@H](C)N(C)C(=O)[C@H](C(C)C)NC(=O)[C@H](Cc2ccc(-c3ccccc3)cc2)NC1=O [Compound 2098] ({CH2CO}-FY(Carboxymethyl)DWL[Bip]V[NMeA][dL][Dab]LVHCN-NH2; thioether N-14) | 0.01 µM |
| CC[C@@H](C)[C@@H]1NC(=O)[C@H](Cc2ccc(-c3ccccc3)cc2)NC(=O)[C@H](CC(C)C)NC(=O)[C@H](Cc2c[nH]c3ccccc23)NC(=O)[C@H](CC(=O)O)NC(=O)[C@H](Cc2ccc(C(=O)O)cc2)NC(=O)[C@H](Cc2ccc(OCC(=O)O)cc2)NC(=O)CSC[C@@H](C(=O)N[C@@H](CCCCN)C(N)=O)NC(=O)[C@H](CO)NC(=O)C(C(C)C)NC(=O)[C@H](CC(C)C)NC(=O)[C@H](CC(N)=O)NC(=O)[C@@H](CC(C)C)NC(=O)[C@H](C)N(C)C1=O (stereo partly drawn) [Compound 2100] ({CH2CO}-Y(Carboxymethyl)[Phe(4-COOH)]DWL[Bip][aIle][NMeA][dL]NL[ξV]SCK-NH2; thioether N-14) | 0.03 µM |
| CC[C@@H](C)[C@@H]1NC(=O)[C@H](Cc2ccc(-c3ccccc3)cc2)NC(=O)[C@H](CC#N)NC(=O)[C@H](Cc2c[nH]c3ccccc23)NC(=O)[C@H](CC(=O)O)NC(=O)[C@H](Cc2ccc(C(=O)O)cc2)NC(=O)[C@H](Cc2ccc(OCC(=O)O)cc2)NC(=O)CSC[C@@H](C(=O)N[C@@H](CCCCN)C(N)=O)NC(=O)[C@H](CO)NC(=O)C(C(C)C)NC(=O)[C@H](CC(C)C)NC(=O)[C@H](CC(N)=O)NC(=O)[C@@H](CC(C)C)NC(=O)[C@H](C)N(C)C1=O (stereo partly drawn) [Compound 2102] ({CH2CO}-Y(Carboxymethyl)[Phe(4-COOH)]DW[Ala(CN)][Bip][aIle][NMeA][dL]NL[ξV]SCK-NH2; thioether N-14) | 0.19 µM |
| CC[C@@H](C)[C@@H]1NC(=O)[C@H](Cc2ccc(-c3ccccc3)cc2)NC(=O)[C@H](C2CCCC2)NC(=O)[C@H](Cc2c[nH]c3ccccc23)NC(=O)[C@H](CC(=O)O)NC(=O)[C@H](Cc2ccc(C(=O)O)cc2)NC(=O)[C@H](Cc2ccc(OCC(=O)O)cc2)NC(=O)CSC[C@@H](C(=O)N[C@@H](CCCCN)C(N)=O)NC(=O)[C@H](CO)NC(=O)C(C(C)C)NC(=O)[C@H](CC(C)C)NC(=O)[C@H](CC(N)=O)NC(=O)[C@@H](CC(C)C)NC(=O)[C@H](C)N(C)C1=O (stereo partly drawn) [Compound 2103] ({CH2CO}-Y(Carboxymethyl)[Phe(4-COOH)]DW[Gly(cPent)][Bip][aIle][NMeA][dL]NL[ξV]SCK-NH2; thioether N-14) | 0.04 µM |
| CC[C@@H](C)[C@@H]1NC(=O)[C@H](Cc2ccc(-c3ccccc3)cc2)NC(=O)[C@H](CC(C)C)NC(=O)[C@H](Cc2c[nH]c3ccccc23)NC(=O)[C@H](CC(=O)O)NC(=O)[C@H](Cc2ccc(C(=O)O)cc2)NC(=O)[C@H](Cc2ccc(OCC(=O)O)cc2)NC(=O)CSC[C@@H](C(=O)N[C@@H](CCCCN)C(N)=O)NC(=O)[C@H](Cc2cnc[nH]2)NC(=O)C(C(C)C)NC(=O)[C@H](CC(C)C)NC(=O)[C@H](CC(N)=O)NC(=O)[C@@H](CC(C)C)NC(=O)[C@H](C)N(C)C1=O (stereo partly drawn) [Compound 2104] ({CH2CO}-Y(Carboxymethyl)[Phe(4-COOH)]DWL[Bip][aIle][NMeA][dL]NL[ξV]HCK-NH2; thioether N-14) | 0.05 µM |

Continued by falling IC50, values first:

| IC50 | SMILES |
| --- | --- |
| 0.11 µM | CC[C@@H](C)[C@@H]1NC(=O)[C@H](Cc2ccc(-c3ccccc3)cc2)NC(=O)[C@H](Cc2cnc[nH]2)NC(=O)[C@H](Cc2c[nH]c3ccccc23)NC(=O)[C@H](CC(=O)O)NC(=O)[C@H](Cc2ccc(C(=O)O)cc2)NC(=O)[C@H](Cc2ccc(OCC(=O)O)cc2)NC(=O)CSC[C@@H](C(=O)N[C@@H](CCCCN)C(N)=O)NC(=O)[C@H](CO)NC(=O)C(C(C)C)NC(=O)[C@H](CC(C)C)NC(=O)[C@H](CC(N)=O)NC(=O)[C@@H](CC(C)C)NC(=O)[C@H](C)N(C)C1=O (stereo partly drawn) [Compound 2101] ({CH2CO}-Y(Carboxymethyl)[Phe(4-COOH)]DWH[Bip][aIle][NMeA][dL]NL[ξV]SCK-NH2; thioether N-14) |
| 0.04 µM | CC(C)C[C@H]1NC(=O)[C@H](C)N(C)C(=O)[C@H](CCC(=O)O)NC(=O)[C@H](Cc2ccc(-c3ccccc3)cc2)NC(=O)[C@H](C(C)C)NC(=O)[C@H](Cc2c[nH]c3ccccc23)NC(=O)[C@H](CC(=O)O)NC(=O)[C@H](Cc2ccc(O)cc2)NC(=O)[C@H](C(C)O)NC(=O)CSC[C@@H](C(=O)NCC(N)=O)NC(=O)[C@H](C(C)O)NC(=O)[C@H](C(C)C)NC(=O)[C@H](CC2CCCCC2)NC(=O)[C@H](CCN)NC1=O (stereo partly drawn) [Compound 2095] ({CH2CO}-[Thr(3ξ)]YDWV[Bip]E[NMeA][dL][Dab][Cha]V[Thr(3ξ)]CG-NH2; thioether N-14) |
| 0.04 µM | CC(C)C[C@@H]1NC(=O)[C@H](Cc2c[nH]c3ccccc23)NC(=O)[C@H](CC(=O)O)NC(=O)[C@H](Cc2ccc(OCC(=O)O)cc2)NC(=O)[C@H](Cc2ccccc2)NC(=O)CSC[C@@H](C(=O)N[C@@H](CC(N)=O)C(N)=O)NC(=O)[C@H](CO)NC(=O)[C@H](C(C)C)NC(=O)[C@H](CC(C)C)NC(=O)[C@H](CCN)NC(=O)[C@@H](CC(C)C)NC(=O)[C@H](C)N(C)C(=O)[C@H](Cc2cnc[nH]2)NC(=O)[C@H](Cc2ccc(-c3ccccc3)cc2)NC1=O [Compound 2096] ({CH2CO}-FY(Carboxymethyl)DWL[Bip]H[NMeA][dL][Dab]LVSCN-NH2; thioether N-14) |
| 0.03 µM | CC(C)C[C@@H]1NC(=O)[C@H](Cc2c[nH]c3ccccc23)NC(=O)[C@H](CC(=O)O)NC(=O)[C@H](Cc2ccc(OCC(=O)O)cc2)NC(=O)[C@H](Cc2ccc(-c3ccc(C(=O)O)cc3)cc2)NC(=O)CSC[C@@H](C(=O)N[C@@H](CC(N)=O)C(N)=O)NC(=O)[C@H](CO)NC(=O)[C@H](C(C)C)NC(=O)[C@H](CC(C)C)NC(=O)[C@H](CCN)NC(=O)[C@@H](CC(C)C)NC(=O)[C@H](C)N(C)C(=O)[C@H](Cc2cnc[nH]2)NC(=O)[C@H](Cc2ccc(-c3ccccc3)cc2)NC1=O [Compound 2097] ({CH2CO}-[Bip(4'-COOH)]Y(Carboxymethyl)DWL[Bip]H[NMeA][dL][Dab]LVSCN-NH2; thioether N-14) |
| 0.02 µM | CC(C)C[C@@H]1NC(=O)[C@H](Cc2c[nH]c3ccccc23)NC(=O)[C@H](CC(=O)O)NC(=O)[C@H](Cc2ccc(OCC(=O)O)cc2)NC(=O)[C@H](CCc2ccncc2)NC(=O)CSC[C@@H](C(=O)N[C@@H](CC(N)=O)C(N)=O)NC(=O)[C@H](Cc2cnc[nH]2)NC(=O)[C@H](C(C)C)NC(=O)[C@H](CC(C)C)NC(=O)[C@H](CCN)NC(=O)[C@@H](CC(C)C)NC(=O)[C@H](C)N(C)C(=O)[C@H](C(C)C)NC(=O)[C@H](Cc2ccc(-c3ccccc3)cc2)NC1=O [Compound 2099] ({CH2CO}-[h4Pal]Y(Carboxymethyl)DWL[Bip]V[NMeA][dL][Dab]LVHCN-NH2; thioether N-14) |
